Measurements reported in patent US20040038861A1, “Methods and compositions for normalizing lipid levels in mammalian tissues” (priority 2001, published 2004).
Where no end group is shown, it is not given here.

How the values were obtained:
[1] = molecular target: metabolic amylin receptor
soleus muscle [2] = assay: cAMP content of isolated soleus muscle from normal fed rats; format: cell-based, rat; conditions: for cAMP content in soleus muscles: 1 μM isoproterenol
Method: (§1) Soleus muscle preparation. All experiments were performed according to protocols approved by the Institutional Animal Ethics Committee. 5-6 week-old male Wistar rats (160 g) were kept on a 12:12-h light/dark cycle, and fed and watered ad libitum. Animals were anaesthetised with 50 mg/kg Nembutal (pentobarbitone sodium), then sacrificed by cervical dislocation. Soleus muscles were dissected under oxygenated KHB (118 mM NaCl, 4.75 mM KCl, 1.2 mM MgSO4, 24.8 mM NaHCO3, 1.2 mM KH2PO4, 2.54 mM CaCl2, 10 mM glucose, pH 7.4) and teased into halves, then incubated as described below.
(§2) For the measurement of cAMP in muscle, isolated soleus strips were incubated with stated concentrations of peptides, then lyophilized and deproteinized. Each strip was placed in 400 μl of 0.5 M HClO4 with 5 mM EDTA (phosphodiesterase inhibitor) and sonicated three times in 20 s bursts. Tubes were heated for 3-5 min in boiling water to coagulate protein, then centrifuged (12,000 g, 4° C., 2 min). Supernatant (300 μl) was taken and the pH adjusted to 7.0 with 75 μl of 2 M NH4OH. The samples were refrigerated (4° C., 2 h) to precipitate proteins, then centrifuged under the same conditions as above and 50 μl taken for cAMP measurement.

soleus muscle [3] = assay: Lipid metabolites (free fatty acid, glycerol, triglyceride; enzymatic analysis) in isolated soleus muscle from normally fed rats; format: cell-based, rat; conditions: 1 h; for free fatty acid content in conjunction with 100 nM CGRP: 10 μM antagonist or maximally stimulating insulin (23.7 nM) + 100 nM CGRP, CGRP alone 334±52; for free fatty acid content in conjunction with 100 nM amylin: 10 μM antagonist or maximally stimulating insulin (23.7 nM) + 100 nM amylin, amylin alone 216±26
soleus muscle [4] = assay: Glucose transport (2-deoxy-D-glucose uptake) in incubated soleus muscle strips; format: cell-based, rat
Method: as §1
Determination of rates of glucose transport in incubated soleus muscle strips. 4-5 muscle strips were added to each flask, which contained 10 ml DMEM. They were pre-incubated with hormones as indicated for 30 min at 30° C. in a shaking water bath, after which 5 μl of 2[^3H]DOG (0.5 μCi/ml) and 5 μl D[^14C(U)]sorbitol (0.05 μCi/ml) were added, then incubated for another 30 min; RIA grade BSA was added to 0.9% (w/v) to prevent non-specific binding of insulin to flasks. Following incubation, muscle strips were transferred to ice-cold KHB for 5-10 min to remove excess [^3H]DOG and [^14C]sorbitol. They were then blotted, frozen, tendons excised, then lyophilized for a further 48 h. Muscles were then weighed, transferred to scintillation vials and digested with 0.5 ml 1 M NaOH at 60° C. for 1 h. Scintillation fluid (4 ml) was added to each vial, and samples counted in a Beckman liquid scintillation spectrometer, preset to count ^14C and ^3H channels simultaneously. The amount of each isotope present in the samples was determined and used to calculate the extracellular space and the intracellular concentration of [^3H]DOG. The accumulation of intracellular [^3H]DOG, a measure of muscle glucose uptake, was calculated by subtracting the concentration of [^3H]DOG in the extracellular space from the corresponding total muscle [^3H]DOG]; extracellular [^3H]DOG was quantified by measuring the muscle concentration of [^14C]sorbitol.
Data analysis. One way ANOVA, Dunnett's Multiple Comparisons Test, and unpaired Student's t-tests were used to calculate the statistical significance of differences, as appropriate. Dose-response curves were fitted to a sigmoidal dose-response algorithm, as follows: Y=minimum+(maximum−minimum)/([…] log ^(EC50^−X), for 2-DOG-uptake; and by a four parameter logistic model, Y=minimum+(maximum−minimum)/(1+10 log ^(EC50^−X)Hill-Coefficient) for total glycogen and [^14C]glucose incorporation. Calculations were performed using Prism v2.0 (GraphPad Software, San Diego, Calif.) to derive values for half-maximal effective concentration (EC50). Displacement curves derived for competition of bound radioligand with cold ligand in transfected cells were calculated according to a one site competition fit using Prism v2.0.

[5] = molecular target: T1, murine ramp 1/C1ins− receptor (Mus musculus, UniProt Q60755+Q9WTJ5); assay: Radioligand binding and displacement of [3H]amylin in L6 myoblasts co-transfected with murine ramp 1 and C1ins−; conditions: displacement of [3H]amylin, FIG. 9A
T1 construct: expressed in transfected cells; host or cells: L6 myoblasts (ATCC), transient co-transfection of pcDNA3.1 plasmids
T1 sequence (Q60755 42-496 isoform Q60755-2 limits assumed): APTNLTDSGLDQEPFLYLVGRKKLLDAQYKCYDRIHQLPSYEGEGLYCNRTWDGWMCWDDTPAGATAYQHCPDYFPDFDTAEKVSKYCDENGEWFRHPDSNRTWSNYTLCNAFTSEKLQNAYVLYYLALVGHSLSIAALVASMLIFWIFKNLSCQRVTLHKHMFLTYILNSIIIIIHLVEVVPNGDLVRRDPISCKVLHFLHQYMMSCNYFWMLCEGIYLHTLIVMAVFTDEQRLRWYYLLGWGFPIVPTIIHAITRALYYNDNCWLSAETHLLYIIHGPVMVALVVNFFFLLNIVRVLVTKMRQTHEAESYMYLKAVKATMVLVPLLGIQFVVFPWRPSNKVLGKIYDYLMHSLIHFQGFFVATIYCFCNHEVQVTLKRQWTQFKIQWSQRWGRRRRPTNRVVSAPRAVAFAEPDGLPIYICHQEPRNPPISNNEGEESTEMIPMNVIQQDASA
T1 sequence (Q9WTJ5 27-148 partner): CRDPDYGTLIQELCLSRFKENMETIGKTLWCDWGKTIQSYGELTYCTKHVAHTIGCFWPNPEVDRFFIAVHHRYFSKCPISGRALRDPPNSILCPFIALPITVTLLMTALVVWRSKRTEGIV
Method: Transfection of L6 myoblasts and cos-7 cells, and analysis of radioligand binding. L6 myoblasts and cos-7 cells were obtained from ATCC. Both cell lines were cultered in Dulbecco's modified Eagle's medium (DMEM; Gibco/BRL, high glucose) supplemented with 10% fetal calf serum (Gibco/BRL, Gaithersburg, Md.), L-glutamine (2 mM), penicillin (100 U/ml; Sigma), streptomycin (100 mg/ml; Sigma), saline (0.85%), under 5% CO2/95% air at 37° C. The day before transfection, cells were trypsinised and seeded into six-well plates at a density of 2.9×10^5 cells/well in the same medium. For transfection, cells were incubated with a mixture comprising 1 μg each of Qiagen-purified (Qiagen, Valencia, Calif.) plasmids containing C1ins− with either ramp 1 or ramp 3, and Fugene reagent (6 μl; Boehringer Mannheim) in Opti-Mem I medium (Gibco/BRL). The complex was added with serum to cells, which were incubated for a further 48 h.
For binding experiments, radioligand (either alone or together with stated final concentrations of non-radiolabeled ligands) was dissolved in DMEM containing 0.1% BSA (binding buffer) for 1 h before binding experiments were performed. […] Cells were washed twice with this buffer, then incubated with 1 ml of the same plus radioligand for 4 h at room temperature (21° C.).

soleus muscle [6] = assay: cAMP content of isolated soleus muscle from high fat-fed rats; format: cell-based, rat
Method: as §1, §2

Wistar rats [7] = assay: Serum hormones and blood metabolites following acute CGRP infusion in anaesthetised normal-fed rats; format: in vivo, rat; conditions: end vs commencement of infusion
Method: (§3) Surgery. Experiments were performed on male Wistar rats. Animals were randomly assigned to experimental groups as outlined below. Induction and maintenance of surgical anesthesia was by 3-5% halothane and 2L oxygen. An initial blood sample was taken from a tail artery for measurement of baseline levels of blood glucose and lactate, electrolyte, acid base and oxygen status and serum levels of free fatty acids, triglyceride and cholesterol. Immediately following this, the trachea was cannulated and the animal ventilated at 60-70 breaths.min-1 with air supplemented with O2. The respiratory rate and end-tidal pressure (10-15 cmH2O) were adjusted to maintain end-tidal CO2 at 35-40 mmHg. Body temperature was maintained at 37° C. throughout surgery and the experiment by a heating pad. The carotid artery and jugular vein were cannulated with a solid-state blood pressure transducer and a saline filled PE 50 catheter respectively. For the antagonist infusion studies, surgery was similar to above with the alteration being that both the carotid artery and jugular vein were cannulated with saline filled PE 50 catheters. Fluids (saline or hormone dissolved in saline) were delivered to the jugular vein with a Y-connector to join the two lines. The carotid artery line was connected to a blood pressure transducer. Blood samples were taken from this line at time zero (baseline reading), 30 minutes and every 20 minutes until the end of the experiment at 90 minutes.
Infusion. […] Blood glucose measurements were taken from tail capillaries at 5-minute intervals throughout the duration of the experiment. At the end of the infusion a terminal blood sample was taken by cardiac puncture and analysed as per the basal sample and also for various metabolites and hormones. Serum and plasma samples were stored at −80° C. until future analysis. Animals were killed by cervical dislocation and harvested tissues (brain, liver, kidney, soleus muscle, extensor digitorum longus muscle, left ventricle, retroperitoneal and epididymal fat pads) snap frozen in liquid N2 and stored at −80° C. until future analysis.

Wistar rats [8] = assay: Tissue free fatty acid and triglyceride content following infusion in normal-fed rats; format: in vivo, rat
Method: as §3
Infusion. […] Blood glucose measurements were taken from tail capillaries at 5-minute intervals throughout the duration of the experiment. At the end of the infusion a terminal blood sample was taken by cardiac puncture and analysed as per the basal sample and also for various metabolites and hormones. Serum and plasma samples were stored at −80° C. until future analysis. Animals were killed by cervical dislocation and harvested tissues (brain, liver, kidney, soleus muscle, extensor digitorum longus muscle, left ventricle, retroperitoneal and epididymal fat pads) snap frozen in liquid N2 and stored at −80° C. until future analysis. For the antagonist studies, the protocols was the same as above with the following changes: Infusion was a combination of antagonist, CGRP or saline.

soleus muscle [9] = assay: Masoprocol effect on CGRP1-evoked NEFA and triglyceride contents in soleus muscle from high fat-fed rats; format: cell-based, rat; conditions: 50 μM masoprocol with 100 nM or 1 pM CGRP1
Excerpt: Masoprocol, (nordihydroguaiaretic acid), is a lipoxygenase inhibitor, that has been identified as the active component of Creosote bush extracts. Oral administration of this compound lowers serum NEFA and triglyceride concentrations in rats with fructose-induced hypertriglyceridemia (Gowri et al. 2000, Am. J. Physiol. 279: E593-E600), and decrease blood glucose and triglyceride concentrations in a fat-fed/streptozotocin rat model (Reed et al. 1999, Diabetologia 42: 102-106).

salmon calcitonin (from UniProt P01263) (ligand; unit assumed)
EC50, total glycogen content, with insulin (23.7 nM) [1]: 0.6 nM

CNCC(O)c1ccc(O)c(O)c1 (stereo not shown) [adrenaline]
cAMP content, agonist alone (soleus muscle [2]; normal fed, 100 nM CGRP or adrenaline, control 3.9±0.2): 9.6 ± 0.7 pmol/mg

insulin: Soluble human insulin (Actrapid 100U, Novo Nordisk)
free fatty acid content in conjunction with 100 nM CGRP (soleus muscle [3]): 107 ± 17 nmol/g | free fatty acid content in conjunction with 100 nM amylin (soleus muscle [3]): 100 ± 11 nmol/g | intramuscular free fatty acid content (soleus muscle [3]; soleus, normally fed rats, 100 nM amylin or CGRP-1, 4.4 μM norepinephrine, 23.7 nM insulin, control 78±21): 67 ± 9 nmol/g | 2-DOG-uptake (soleus muscle [4]; hormone alone (amylin 10 nM; insulin 23.7 nM), basal 8.8 ± 0.9): 28.4 ± 6.4 nmol/g dry-wt muscle/min | stimulation of glucose uptake (soleus muscle [4]; insulin 23.7 nM vs basal): 3.2 fold

Human adrenomedullin
competition with amylin for binding to co-transfected cells [5]: competed only very weakly

rat amylin (from UniProt P12969) (ligand; unit assumed)
EC50, total glycogen content, with insulin (23.7 nM) [1]: 8.1 nM

CC(C)NCC(O)c1ccc(O)c(O)c1 (stereo not shown) [isoproterenol]
cAMP content in soleus muscles (soleus muscle [2]; experiment of FIG. 13A): 3.5 ± 0.2 pmol/mg | cAMP content in soleus muscles (soleus muscle [2]; experiment of FIG. 13B): 3.8 ± 0.2 pmol/mg

human CGRP1-(8-37) [CGRP-(8-37)]
free fatty acid concentration in conjunction with 1 pM CGRP (soleus muscle [3]; 100 pM antagonist + 1 pM CGRP, CGRP alone 166±18): 68±8 nmol/g | free fatty acid content in conjunction with 100 nM CGRP (soleus muscle [3]): 90 ± 7 nmol/g | free fatty acid content in conjunction with 100 nM amylin (soleus muscle [3]): 65 ± 8 nmol/g | cAMP content with 100 nM CGRP plus antagonist (soleus muscle [2]; normal fed, 10-fold molar excess of antagonist, CGRP alone 6.9±0.8): 4.8 ± 0.2 pmol/mg | cAMP content with 100 nM CGRP1 plus antagonist (soleus muscle [6]; 10-fold molar excess of antagonist): 5.4 ± 0.4 pmol/mg | cAMP content with 1 pM CGRP plus antagonist (soleus muscle [6]; 10-molar excess of antagonist, CGRP alone 8.6±0.4): 4.7±0.5 pmol/mg | Change in [serum] Triglyceride (Wistar rats [7]; CGRP 60 min, CGRP-(8-37) 90 min, control 0.2): 0.9 mmol/L | Change in [serum] FFA (Wistar rats [7]; control −0.1): -0.3 mmol/L | Change in Lactate (Wistar rats [7]; heparinised whole blood, control 0.3): 0.02 mmol/L | FFA content, Heart (Wistar rats [8]; CGRP 100 pmol/kg/min 1 h, CGRP-(8-37) 10 nmol/kg/min 90 minutes, control 0.8 ± 0.2): 0.9 ± 0.2 µmol/g | FFA content, Liver (Wistar rats [8]; same infusions, control 0.1 ± 0.01): 0.06 ± 0.04 µmol/g | FFA content, Soleus Muscle (Wistar rats [8]; same infusions, control 0.2 ± 0.02): 0.1 ± 0.02 µmol/g | FFA content, Kidney (Wistar rats [8]; same infusions, control 0.8 ± 0.1): 0.8 ± 0.1 µmol/g | FFA content, Epi Adipose (Wistar rats [8]; same infusions, control 2.1 ± 0.5): 2.2 ± 0.6 µmol/g | triglyceride content, Kidney (Wistar rats [8]; same infusions, control 2.8 ± 0.5): 2.5 ± 0.4 µmol/g | triglyceride content, Heart (Wistar rats [8]; same infusions, control 2.9 ± 0.4): 3.1 ± 0.4 µmol/g | triglyceride content, Soleus Muscle (Wistar rats [8]; same infusions, control 3.7 ± 0.4): 4.3 ± 0.4 µmol/g | triglyceride content, Liver (Wistar rats [8]; same infusions, control 4.3 ± 0.3): 5.8 ± 0.4 µmol/g | triglyceride content, Epi Adipose (Wistar rats [8]; same infusions, control 5.1 ± 1.2): 4.9 ± 1 µmol/g

rat CGRP-1 (ligand; unit assumed)
EC50, total glycogen content, with insulin (23.7 nM) [1]: 4.3 nM

CC(Cc1ccc(O)c(O)c1)C(C)Cc1ccc(O)c(O)c1 (stereo not shown) [masoprocol, nordihydroguaiaretic acid]
effect on CGRP1-evoked NEFA elevation (soleus muscle [9]): completely reversed NEFA elevation | effect on CGRP1-evoked decrements in triglyceride content (soleus muscle [9]): completely reversed decrements in soleus triglyceride content

rat calcitonin (CGNLSTCMLGTYTQDLNKFHTFPQTSIGVGAP; ends and bridges not checked; cysteine pairing not given here) [calcitonin family peptide from Bachem]
competition with amylin for binding to co-transfected cells [5]: competed only very weakly

CSNLSTCVLGKLSQELHKLQTYPRTNTGSGTP (ligand, ends and bridges not checked; cysteine pairing not given here) [salmon calcitonin]
EC50, ^14C-glucose incorporation into glycogen, with insulin (23.7 nM) [1]: 0.9 nM | EC50, ^14C-glucose incorporation into glycogen, without insulin [1]: 0.1 nM | EC50, total glycogen content, without insulin [1]: 1.7 nM
